{"source": "ChEMBL document CHEMBL4507291", "about": "(2021)", "key": {"[1]": {"molecular_target": "D(2) dopamine receptor (Homo sapiens) (UniProt P14416)", "sequence (P14416 whole entry)": "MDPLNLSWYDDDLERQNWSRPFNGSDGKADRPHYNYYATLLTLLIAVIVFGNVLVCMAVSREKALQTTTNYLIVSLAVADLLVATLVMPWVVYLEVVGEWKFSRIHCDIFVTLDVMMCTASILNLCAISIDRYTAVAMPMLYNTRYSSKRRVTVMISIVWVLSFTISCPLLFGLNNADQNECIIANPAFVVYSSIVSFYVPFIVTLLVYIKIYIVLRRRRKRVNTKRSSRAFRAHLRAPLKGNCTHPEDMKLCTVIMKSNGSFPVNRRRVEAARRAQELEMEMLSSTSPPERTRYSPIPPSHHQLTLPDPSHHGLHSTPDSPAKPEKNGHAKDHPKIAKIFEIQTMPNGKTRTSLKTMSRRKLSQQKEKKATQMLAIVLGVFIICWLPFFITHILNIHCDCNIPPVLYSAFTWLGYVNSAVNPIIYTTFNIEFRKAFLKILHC", "conditions": "Compound concentration 10.0 uM"}, "[2]": {"molecular_target": "PI3-kinase p110-alpha/p85-alpha (Homo sapiens) (UniProt P27986+P42336)", "assay": "PIK3CA/PIK3R1 (p110 alpha/p85 alpha) Kinase screen", "assay_type": "protein-complex assay", "conditions": "Compound concentration 1.0 uM"}, "[3]": {"molecular_target": "T1, Dual specificity protein kinase TTK (Homo sapiens) (UniProt P33981)", "T1 sequence (whole entry)": "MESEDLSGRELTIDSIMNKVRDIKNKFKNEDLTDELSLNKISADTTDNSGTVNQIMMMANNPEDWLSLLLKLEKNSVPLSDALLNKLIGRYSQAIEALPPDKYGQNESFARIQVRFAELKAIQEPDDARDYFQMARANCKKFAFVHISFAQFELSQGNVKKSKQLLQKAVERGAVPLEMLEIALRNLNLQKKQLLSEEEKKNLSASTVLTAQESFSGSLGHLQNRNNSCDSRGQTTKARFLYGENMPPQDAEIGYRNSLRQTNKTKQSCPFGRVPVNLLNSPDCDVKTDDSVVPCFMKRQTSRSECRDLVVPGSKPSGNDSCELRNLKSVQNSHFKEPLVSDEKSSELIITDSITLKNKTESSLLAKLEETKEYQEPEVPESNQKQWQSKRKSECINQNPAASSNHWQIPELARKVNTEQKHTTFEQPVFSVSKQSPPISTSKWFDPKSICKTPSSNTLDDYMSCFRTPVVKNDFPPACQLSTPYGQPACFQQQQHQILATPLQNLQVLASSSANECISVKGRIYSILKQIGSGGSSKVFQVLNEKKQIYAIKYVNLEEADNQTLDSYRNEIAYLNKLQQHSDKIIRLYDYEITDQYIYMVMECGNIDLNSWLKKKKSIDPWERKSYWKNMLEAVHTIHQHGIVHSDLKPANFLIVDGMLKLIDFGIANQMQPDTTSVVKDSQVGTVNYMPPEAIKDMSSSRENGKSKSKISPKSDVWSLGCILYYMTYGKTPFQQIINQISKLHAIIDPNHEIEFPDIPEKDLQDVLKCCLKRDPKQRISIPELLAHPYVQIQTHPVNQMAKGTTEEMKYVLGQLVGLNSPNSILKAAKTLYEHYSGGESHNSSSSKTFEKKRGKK", "assay": "TTK Kinase screen", "conditions": "Compound concentration 1.0 uM"}, "[4]": {"molecular_target": "T2, Peroxisome proliferator-activated receptor gamma (Homo sapiens) (UniProt P37231)", "T2 sequence (whole entry)": "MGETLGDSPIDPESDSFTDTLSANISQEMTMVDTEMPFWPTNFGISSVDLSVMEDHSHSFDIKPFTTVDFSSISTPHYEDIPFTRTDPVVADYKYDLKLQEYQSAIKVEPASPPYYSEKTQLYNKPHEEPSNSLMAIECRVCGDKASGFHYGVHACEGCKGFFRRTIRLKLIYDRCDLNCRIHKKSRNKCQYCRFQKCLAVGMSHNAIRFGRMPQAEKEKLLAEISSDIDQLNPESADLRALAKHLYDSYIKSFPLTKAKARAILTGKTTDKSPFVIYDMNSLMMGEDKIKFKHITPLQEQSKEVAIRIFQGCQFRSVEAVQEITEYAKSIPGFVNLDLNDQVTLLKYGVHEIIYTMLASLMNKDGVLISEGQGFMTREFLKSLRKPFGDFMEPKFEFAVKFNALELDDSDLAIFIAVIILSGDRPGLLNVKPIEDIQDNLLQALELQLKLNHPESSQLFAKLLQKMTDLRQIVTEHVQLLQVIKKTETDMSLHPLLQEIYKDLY", "assay": "(§1) PPARgamma Eurofins-Panlabs radioligand binding assay", "design": "ligand concentration 5 nM, non-specific ligand with concentration 0.5 µM L-797773, incubation time 18 h, incubation temperature 15 °C"}, "[5]": {"molecular_target": "Peroxisome proliferator-activated receptor gamma (Homo sapiens, UniProt P37231)", "assay": "as §1", "design": "ligand concentration 5 nM, non-specific ligand with concentration 0.5 µM L-797773, incubation time 18 h, incubation temperature 15 °C"}, "[6]": {"molecular_target": "Endothelin receptor type B (Homo sapiens) (UniProt P24530)", "sequence (P24530 whole entry)": "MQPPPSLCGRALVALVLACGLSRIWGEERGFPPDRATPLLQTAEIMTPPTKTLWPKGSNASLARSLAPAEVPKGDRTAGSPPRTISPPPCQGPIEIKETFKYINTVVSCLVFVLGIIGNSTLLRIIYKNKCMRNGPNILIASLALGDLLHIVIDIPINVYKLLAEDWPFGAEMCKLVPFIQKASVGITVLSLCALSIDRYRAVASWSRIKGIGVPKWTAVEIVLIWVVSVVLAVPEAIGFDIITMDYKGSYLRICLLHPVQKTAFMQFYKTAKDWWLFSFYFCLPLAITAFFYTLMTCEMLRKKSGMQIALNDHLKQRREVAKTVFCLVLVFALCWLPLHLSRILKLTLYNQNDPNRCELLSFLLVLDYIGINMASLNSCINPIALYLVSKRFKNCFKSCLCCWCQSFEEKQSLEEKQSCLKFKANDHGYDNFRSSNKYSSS", "conditions": "Compound concentration 10.0 uM"}, "[7]": {"test_system": "Mast/stem cell growth factor receptor Kit (Homo sapiens), P10721 [V654A]", "sequence (P10721 whole entry V654A)": "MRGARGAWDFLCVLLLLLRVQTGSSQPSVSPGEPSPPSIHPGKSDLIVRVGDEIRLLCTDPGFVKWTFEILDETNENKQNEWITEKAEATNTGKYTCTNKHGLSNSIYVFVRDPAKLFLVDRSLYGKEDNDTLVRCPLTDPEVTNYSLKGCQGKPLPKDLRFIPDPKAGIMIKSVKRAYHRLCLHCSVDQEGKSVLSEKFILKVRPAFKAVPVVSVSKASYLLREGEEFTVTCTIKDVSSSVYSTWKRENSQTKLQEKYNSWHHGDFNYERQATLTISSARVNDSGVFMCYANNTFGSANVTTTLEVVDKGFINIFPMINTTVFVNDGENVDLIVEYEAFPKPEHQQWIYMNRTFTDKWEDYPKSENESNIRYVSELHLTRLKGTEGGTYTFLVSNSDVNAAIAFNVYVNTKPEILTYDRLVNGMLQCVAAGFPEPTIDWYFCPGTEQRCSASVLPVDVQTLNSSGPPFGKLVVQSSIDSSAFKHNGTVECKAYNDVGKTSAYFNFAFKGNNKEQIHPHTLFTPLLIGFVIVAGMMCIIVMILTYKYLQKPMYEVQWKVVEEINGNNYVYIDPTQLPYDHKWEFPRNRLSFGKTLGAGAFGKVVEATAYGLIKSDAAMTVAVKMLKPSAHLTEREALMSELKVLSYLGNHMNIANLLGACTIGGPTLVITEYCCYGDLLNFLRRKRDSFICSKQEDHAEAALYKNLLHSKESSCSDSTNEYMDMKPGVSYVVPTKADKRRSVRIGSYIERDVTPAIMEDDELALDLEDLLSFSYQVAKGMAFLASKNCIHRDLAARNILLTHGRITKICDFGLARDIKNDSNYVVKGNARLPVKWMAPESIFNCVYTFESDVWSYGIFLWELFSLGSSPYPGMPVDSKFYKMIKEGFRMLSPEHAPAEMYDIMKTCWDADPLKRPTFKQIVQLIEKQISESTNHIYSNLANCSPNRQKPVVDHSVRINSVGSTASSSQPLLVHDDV", "assay": "KIT V654A Kinase screen", "conditions": "Compound concentration 1.0 uM"}, "[8]": {"molecular_target": "Mitogen-activated protein kinase kinase kinase 10 (Homo sapiens) (UniProt Q02779)", "sequence (Q02779 whole entry, looked up)": "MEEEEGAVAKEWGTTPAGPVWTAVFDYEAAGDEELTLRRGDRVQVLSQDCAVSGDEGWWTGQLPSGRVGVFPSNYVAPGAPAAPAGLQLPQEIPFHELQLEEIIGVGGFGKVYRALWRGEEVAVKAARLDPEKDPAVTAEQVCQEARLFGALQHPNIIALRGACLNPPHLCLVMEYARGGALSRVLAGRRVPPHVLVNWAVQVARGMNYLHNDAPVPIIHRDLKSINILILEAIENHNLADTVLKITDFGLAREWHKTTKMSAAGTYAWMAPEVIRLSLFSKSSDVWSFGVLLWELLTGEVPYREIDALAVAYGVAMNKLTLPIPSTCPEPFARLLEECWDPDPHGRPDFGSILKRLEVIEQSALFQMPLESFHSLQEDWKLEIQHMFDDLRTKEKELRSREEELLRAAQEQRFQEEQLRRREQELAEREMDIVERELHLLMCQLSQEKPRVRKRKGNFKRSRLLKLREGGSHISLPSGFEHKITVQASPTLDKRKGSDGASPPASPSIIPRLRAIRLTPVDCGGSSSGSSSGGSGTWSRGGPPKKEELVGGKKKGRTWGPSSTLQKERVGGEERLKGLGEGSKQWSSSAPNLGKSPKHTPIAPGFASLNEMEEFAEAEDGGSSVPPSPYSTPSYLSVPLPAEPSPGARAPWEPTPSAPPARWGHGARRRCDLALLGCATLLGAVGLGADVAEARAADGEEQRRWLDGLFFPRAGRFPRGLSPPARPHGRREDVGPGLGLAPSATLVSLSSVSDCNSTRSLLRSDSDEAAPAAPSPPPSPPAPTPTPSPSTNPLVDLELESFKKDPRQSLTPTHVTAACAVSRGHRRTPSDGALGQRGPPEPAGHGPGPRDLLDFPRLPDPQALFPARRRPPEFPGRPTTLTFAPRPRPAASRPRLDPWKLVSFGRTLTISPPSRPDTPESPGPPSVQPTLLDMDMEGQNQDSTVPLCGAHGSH", "assay": "MAP3K10 (MLK2) Kinase screen", "conditions": "Compound concentration 1.0 uM"}, "[9]": {"molecular_target": "T3, Serine/threonine-protein kinase Sgk3 (Homo sapiens) (UniProt Q96BR1)", "T3 sequence (whole entry)": "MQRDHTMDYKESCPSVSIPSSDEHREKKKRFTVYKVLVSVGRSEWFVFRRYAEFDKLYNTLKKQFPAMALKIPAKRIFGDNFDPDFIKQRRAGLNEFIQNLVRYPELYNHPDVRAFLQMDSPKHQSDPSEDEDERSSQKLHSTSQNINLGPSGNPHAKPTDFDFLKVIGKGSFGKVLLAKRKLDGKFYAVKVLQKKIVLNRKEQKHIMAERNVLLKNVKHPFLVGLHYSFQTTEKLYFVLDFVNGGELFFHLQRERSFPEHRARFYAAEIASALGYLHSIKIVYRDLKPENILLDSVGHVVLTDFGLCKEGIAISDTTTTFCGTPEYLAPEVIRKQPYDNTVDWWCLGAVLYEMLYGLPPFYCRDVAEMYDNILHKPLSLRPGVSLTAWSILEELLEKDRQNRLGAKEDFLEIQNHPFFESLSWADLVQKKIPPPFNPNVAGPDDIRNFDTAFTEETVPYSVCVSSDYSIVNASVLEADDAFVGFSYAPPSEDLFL", "assay": "SGKL (SGK3) Kinase screen", "conditions": "Compound concentration 1.0 uM"}, "[10]": {"molecular_target": "Activated CDC42 kinase 1 (Homo sapiens) (UniProt Q07912)", "assay": "TNK2 (ACK) Kinase screen", "conditions": "Compound concentration 1.0 uM"}, "[11]": {"molecular_target": "Serine/threonine-protein kinase MRCK beta (Homo sapiens) (UniProt Q9Y5S2)", "sequence (Q9Y5S2 whole entry)": "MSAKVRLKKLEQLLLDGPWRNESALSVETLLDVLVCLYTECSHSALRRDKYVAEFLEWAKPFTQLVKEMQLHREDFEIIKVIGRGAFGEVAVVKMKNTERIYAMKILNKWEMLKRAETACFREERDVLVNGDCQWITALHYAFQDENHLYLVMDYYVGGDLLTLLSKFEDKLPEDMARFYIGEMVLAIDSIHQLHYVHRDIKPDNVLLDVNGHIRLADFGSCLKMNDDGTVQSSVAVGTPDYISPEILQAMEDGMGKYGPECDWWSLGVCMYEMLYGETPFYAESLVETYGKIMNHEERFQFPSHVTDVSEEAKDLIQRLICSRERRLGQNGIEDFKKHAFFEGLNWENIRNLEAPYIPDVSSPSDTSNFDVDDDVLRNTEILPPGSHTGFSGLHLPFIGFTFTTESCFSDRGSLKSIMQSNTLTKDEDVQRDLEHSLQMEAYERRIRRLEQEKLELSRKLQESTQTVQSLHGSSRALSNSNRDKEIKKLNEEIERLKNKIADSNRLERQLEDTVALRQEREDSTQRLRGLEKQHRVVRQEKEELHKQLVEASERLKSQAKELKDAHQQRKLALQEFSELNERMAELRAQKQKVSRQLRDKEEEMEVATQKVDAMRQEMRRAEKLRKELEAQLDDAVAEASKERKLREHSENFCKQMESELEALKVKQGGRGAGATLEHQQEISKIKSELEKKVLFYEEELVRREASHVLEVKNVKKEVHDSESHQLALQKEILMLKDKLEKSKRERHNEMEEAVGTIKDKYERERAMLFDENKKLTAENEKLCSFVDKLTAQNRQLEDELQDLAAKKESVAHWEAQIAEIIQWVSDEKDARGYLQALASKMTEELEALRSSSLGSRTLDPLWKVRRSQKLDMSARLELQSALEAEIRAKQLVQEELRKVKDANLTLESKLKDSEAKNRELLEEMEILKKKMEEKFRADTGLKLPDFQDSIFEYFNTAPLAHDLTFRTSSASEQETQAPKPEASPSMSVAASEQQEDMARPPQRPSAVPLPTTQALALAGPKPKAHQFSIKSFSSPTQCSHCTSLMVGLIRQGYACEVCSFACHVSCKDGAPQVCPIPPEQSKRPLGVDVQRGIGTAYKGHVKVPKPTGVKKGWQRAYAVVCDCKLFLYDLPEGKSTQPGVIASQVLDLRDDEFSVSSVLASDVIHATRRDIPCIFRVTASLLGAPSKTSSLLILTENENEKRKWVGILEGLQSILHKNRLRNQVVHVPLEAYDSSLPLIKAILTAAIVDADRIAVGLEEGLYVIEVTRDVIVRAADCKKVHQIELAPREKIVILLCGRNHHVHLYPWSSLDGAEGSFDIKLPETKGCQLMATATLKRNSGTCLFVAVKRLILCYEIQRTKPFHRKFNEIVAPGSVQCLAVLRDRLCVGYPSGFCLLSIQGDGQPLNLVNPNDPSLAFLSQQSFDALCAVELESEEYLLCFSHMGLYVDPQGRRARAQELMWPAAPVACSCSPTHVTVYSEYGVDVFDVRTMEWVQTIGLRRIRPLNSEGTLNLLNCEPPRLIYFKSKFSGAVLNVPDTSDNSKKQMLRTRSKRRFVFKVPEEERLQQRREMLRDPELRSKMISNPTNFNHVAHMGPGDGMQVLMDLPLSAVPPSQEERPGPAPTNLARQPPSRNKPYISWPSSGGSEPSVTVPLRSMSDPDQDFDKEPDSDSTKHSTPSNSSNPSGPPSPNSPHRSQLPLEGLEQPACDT", "assay": "CDC42 BPB (MRCKB) Kinase screen", "conditions": "Compound concentration 1.0 uM"}, "[12]": {"molecular_target": "Phosphatidylinositol 4-phosphate 3-kinase C2 domain-containing subunit alpha (Homo sapiens) (UniProt O00443)", "assay": "PIK3C2A (PI3K-C2 alpha) Kinase screen", "conditions": "Compound concentration 1.0 uM"}, "[13]": {"molecular_target": "Serine/threonine-protein kinase Nek7 (Homo sapiens) (UniProt Q8TDX7)", "sequence (Q8TDX7 whole entry, looked up)": "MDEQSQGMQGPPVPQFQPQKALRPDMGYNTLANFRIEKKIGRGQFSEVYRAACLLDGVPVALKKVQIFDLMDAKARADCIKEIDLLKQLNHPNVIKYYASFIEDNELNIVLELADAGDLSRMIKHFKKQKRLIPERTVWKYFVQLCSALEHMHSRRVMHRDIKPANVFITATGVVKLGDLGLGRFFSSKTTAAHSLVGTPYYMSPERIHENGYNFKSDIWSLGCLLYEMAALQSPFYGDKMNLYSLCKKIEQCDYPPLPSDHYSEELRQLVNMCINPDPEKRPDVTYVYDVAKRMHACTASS", "assay": "NEK7 Kinase screen", "conditions": "Compound concentration 1.0 uM"}}, "data": [{"smiles": "C[C@@H]1CN(c2cc(-c3nn(C)c4ccc(OC5(C)CC5)cc34)ncn2)C[C@H](C)O1", "note": "[MLi-2-NC]", "values": [{"measurement": "inhibition", "setting": "[1]", "result": -0.18, "unit": "%"}]}, {"smiles": "C[C@@H]1CN(c2cc(-c3n[nH]c4ccc(OC5(C)CC5)cc34)ncn2)C[C@H](C)O1", "note": "[MLi-2]", "values": [{"measurement": "inhibition", "setting": "[2]", "result": 3.21, "unit": "%"}, {"measurement": "inhibition", "setting": "[3]", "result": 56.5, "unit": "%"}, {"measurement": "inhibition", "setting": "[4]; Compound concentration 0.01 uM", "result": 6, "unit": "%"}, {"measurement": "inhibition", "setting": "[4]; Compound concentration 0.1 uM", "result": 0, "unit": "%"}, {"measurement": "inhibition", "setting": "[4]; Compound concentration 1.0 uM", "result": 10, "unit": "%"}, {"measurement": "inhibition", "setting": "[4]; Compound concentration 10.0 uM", "result": 62, "unit": "%"}, {"measurement": "Ki", "setting": "[5]", "result": 1190, "unit": "nM"}, {"measurement": "inhibition", "setting": "[6]", "result": -1, "unit": "%"}, {"measurement": "inhibition", "setting": "[7]", "result": 1.06, "unit": "%"}, {"measurement": "inhibition", "setting": "[8]", "result": 0.659, "unit": "%"}, {"measurement": "inhibition", "setting": "[9]", "result": 0.213, "unit": "%"}, {"measurement": "inhibition", "setting": "[10]", "result": 22.9, "unit": "%"}, {"measurement": "inhibition", "setting": "[11]", "result": 4.34, "unit": "%"}, {"measurement": "inhibition", "setting": "[12]", "result": -0.741, "unit": "%"}, {"measurement": "inhibition", "setting": "[13]", "result": 3.68, "unit": "%"}]}]}
